Data reported in the supplement of paper PMC11208160.

Test: recombinant barcode read abundance after kanamycin selection (control-corrected) (log10(CPM+1)); higher = more efficient recombination; sequences stand for … in AGTGCAGAGAAAATCGGCCAGTTTTCTCTGCCTGCAGTCCGCATGCCGT…AGATTTATGCAGCGGACTGCCTTTCTCCCAAAGTGATAAACCGGACAGTATCATGGACCGGTTTTCCCGGTAATCCGTATTTGCAAGGTTGGTTTCACT; site = the 11-nt target
How it was run: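 Targets and IS621 bridge RNA target-binding loops were paired in oligos, each with a promoter, a barcode and the J23119-driven first 104 bridge RNA bases. A vector carrying the remaining 73 bp and a T7-inducible recombinase received these by Gibson cloning, and the pool was co-electroporated into E. coli with a donor plasmid. Duplicate plates contained chloramphenicol/ampicillin LB agar (control) or chloramphenicol/ampicillin/kanamycin with 0.1 mM IPTG. Recombination efficiency comes from averaged, control-corrected counts per million of recombinant-junction barcodes, reported as log10(CPM+1).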
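Also: IS621 recombinase and bridge RNA in Escherichia coli cells.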

Row | Sequence | recombinant barcode read abundance (log10)
1 | CTAGGAGCTTGGGTTCTAACCTGTTGCTG (site CTAGGAGCTGA) | 0.169
2 | CTAGGAGCTTGGGTTCTAACCTGTTGCTG (site CTAGGAGCTTA) | 0.073
3 | CTAGGATCTTGGGTTCTAACCTGTTGCCA (site CTAGGATCTAT) | 0.844
4 | CTAGGATCTTGGGTTCTAACCTGTTGCCA (site CTAGGATCTTG) | 0.24
5 | CTAGGCCCTTGGGTTCTAACCTGTTGCGT (site CTAGGCCCTAA) | 0.361
6 | CTAGGCCCTTGGGTTCTAACCTGTTGCGT (site CTAGGCCCTAC) | 3.3
7 | CTAGGCCCTTGGGTTCTAACCTGTTGCGT (site CTAGGCCCTAG) | 0.264
8 | CTAGGCCCTTGGGTTCTAACCTGTTGCGT (site CTAGGCCCTAT) | 2.28
9 | CTAGTAGCTTGGGTTCTAACCTGTTGCCG (site CTAGTAGCTCG) | 1.84
10 | CTAGTAGCTTGGGTTCTAACCTGTTGCCG (site CTATTAGCTCG) | 0.277
11 | CTAGTAGCTTGGGTTCTAACCTGTTGCGT (site CTAGTAGCTAC) | 2.25
12 | CTAGTAGCTTGGGTTCTAACCTGTTGCGT (site CTAGTAGCTCC) | 0.378
13 | CTAGTCTCTTGGGTTCTAACCTGTTGCGT (site CTAGGATCTAC) | 0.0308
14 | CTAGTCTCTTGGGTTCTAACCTGTTGCGT (site CTAGTCTCTAC) | 3.07
15 | CTAGTGACTTGGGTTCTAACCTGTTGCGC (site CTAGTGACTAC) | 0.0258
16 | CTAGTGACTTGGGTTCTAACCTGTTGCGC (site CTAGTGACTCC) | 0.0835
17 | CTAGTGACTTGGGTTCTAACCTGTTGCGC (site CTAGTGACTGC) | 2.12
18 | CTAGTGACTTGGGTTCTAACCTGTTGCGC (site CTAGTGACTTC) | 0.127
19 | CTAGTGACTTGGGTTCTAACCTGTTGCGT (site CTAGTGACTAC) | 1.17
20 | CTAGTGACTTGGGTTCTAACCTGTTGCGT (site CTAGTGACTCC) | 0.313
21 | CTAGTGACTTGGGTTCTAACCTGTTGCGT (site CTAGTGACTGC) | 0.0977
22 | CTAGTGACTTGGGTTCTAACCTGTTGCGT (site CTAGTGACTTC) | 0.00958

Row | Sequence | recombinant barcode read abundance (log10)
23 | CTATACTCTTGGGTTCTAACCTGTTGCCA (site CTATACTCTTG) | 1.03
24 | CTATACTCTTGGGTTCTAACCTGTTGCCA (site CTATTCTCTTA) | 0.195
25 | CTATATGCTTGGGTTCTAACCTGTTGCTT (site CTATATGCTAA) | 0.613
26 | CTATATGCTTGGGTTCTAACCTGTTGCTT (site TAGACCACTGT) | 0.449
27 | CTATCGCCTTGGGTTCTAACCTGTTGCCT (site CTATCGCCTAG) | 0.496
28 | CTATCGCCTTGGGTTCTAACCTGTTGCCT (site CTCTCGCCTAG) | 0.238
29 | CTATCGCCTTGGGTTCTAACCTGTTGCCT (site CTGTCGCCTAG) | 0.0772
30 | CTATCGCCTTGGGTTCTAACCTGTTGCCT (site CTTTCGCCTAG) | 0.0941
31 | CTATTATCTTGGGTTCTAACCTGTTGCCT (site CTATTATCTAG) | 0.935
32 | CTATTATCTTGGGTTCTAACCTGTTGCCT (site CTGTTATCTAG) | 0.0433
33 | CTATTCTCTTGGGTTCTAACCTGTTGCCT (site CTATTCACTAG) | 0.472
34 | CTATTCTCTTGGGTTCTAACCTGTTGCCT (site CTATTCCCTAG) | 0.188
35 | CTATTCTCTTGGGTTCTAACCTGTTGCCT (site CTATTCGCTAG) | 0.011
36 | CTATTCTCTTGGGTTCTAACCTGTTGCCT (site CTATTCTCTAG) | 2.03
37 | CTATTTGCTTGGGTTCTAACCTGTTGCAA (site CTAATTGCTTT) | 0.0524
38 | CTATTTGCTTGGGTTCTAACCTGTTGCAA (site CTACTTGCTTT) | 0.103
39 | CTATTTGCTTGGGTTCTAACCTGTTGCAA (site CTAGTTGCTTT) | 0.0402
40 | CTATTTGCTTGGGTTCTAACCTGTTGCAA (site CTATTTGCTTT) | 0.0441
41 | CTCATTCCTTGGGTTCTAACCTGTTGCGT (site CTCATTCCTAA) | 0.00984
42 | CTCATTCCTTGGGTTCTAACCTGTTGCGT (site CTCATTCCTAC) | 1.4
43 | CTCATTCCTTGGGTTCTAACCTGTTGCGT (site CTCATTCCTAG) | 0.0869
44 | CTCATTCCTTGGGTTCTAACCTGTTGCGT (site CTCATTCCTAT) | 0.212

Row | Sequence | recombinant barcode read abundance (log10)
45 | CTCCATTCTTGGGTTCTAACCTGTTGCAT (site CTCAATTCTAT) | 0.217
46 | CTCCATTCTTGGGTTCTAACCTGTTGCAT (site CTCCATTCTAT) | 1.74
47 | CTCCATTCTTGGGTTCTAACCTGTTGCAT (site CTCGATTCTAT) | 0.123
48 | CTCCATTCTTGGGTTCTAACCTGTTGCAT (site CTCTATTCTAT) | 0.34
49 | CTCCCTACTTGGGTTCTAACCTGTTGCAG (site CTCCCAACTCG) | 0.072
50 | CTCCCTACTTGGGTTCTAACCTGTTGCAG (site CTCCCTACTCT) | 1.68
51 | CTCCGGCCTTGGGTTCTAACCTGTTGCTT (site CTCCGACCTAA) | 0.809
52 | CTCCGGCCTTGGGTTCTAACCTGTTGCTT (site CTCCGCCCTAA) | 0.0895
53 | CTCCGGCCTTGGGTTCTAACCTGTTGCTT (site CTCCGGCCTAA) | 0.521
54 | CTCCGGCCTTGGGTTCTAACCTGTTGCTT (site CTCCGTCCTAA) | 0.0711
55 | CTCCGTACTTGGGTTCTAACCTGTTGCCG (site CTCCGTACTCG) | 0.13
56 | CTCCGTACTTGGGTTCTAACCTGTTGCCG (site CTTCGTACTTG) | 0.0671
57 | CTCCTACCTTGGGTTCTAACCTGTTGCCT (site CGCCTAGCTAG) | 0.11
58 | CTCCTACCTTGGGTTCTAACCTGTTGCCT (site CTCCTACCTAG) | 0.957
59 | CTCCTCTCTTGGGTTCTAACCTGTTGCCT (site CTCCTCCCTAG) | 0.862
60 | CTCCTCTCTTGGGTTCTAACCTGTTGCCT (site CTCCTCTCTAG) | 2.05
61 | CTCCTGCCTTGGGTTCTAACCTGTTGCCT (site CTCCTGCCTAG) | 0.977
62 | CTCCTGCCTTGGGTTCTAACCTGTTGCCT (site TTCCTGACTAG) | 0.0902
63 | CTCGACACTTGGGTTCTAACCTGTTGCCT (site CTAGACACTAG) | 0.697
64 | CTCGACACTTGGGTTCTAACCTGTTGCCT (site CTCGACACTAG) | 1.82
65 | CTCGACACTTGGGTTCTAACCTGTTGCCT (site CTGGACACTAG) | 0.0603
66 | CTCGACACTTGGGTTCTAACCTGTTGCCT (site CTTGACACTAG) | 0.215

Row | Sequence | recombinant barcode read abundance (log10)
67 | CTCGCAGCTTGGGTTCTAACCTGTTGCGG (site CTCGCAGCTCC) | 0.313
68 | CTCGCAGCTTGGGTTCTAACCTGTTGCGG (site CTCGCGACTCC) | 0.141
69 | CTCGCGACTTGGGTTCTAACCTGTTGCGG (site CTCGCAGCTCC) | 0.655
70 | CTCGCGACTTGGGTTCTAACCTGTTGCGG (site CTCGCGACTCC) | 0.181
71 | CTCGCTCCTTGGGTTCTAACCTGTTGCTG (site AATAAGTCTAT) | 0.102
72 | CTCGCTCCTTGGGTTCTAACCTGTTGCTG (site CTCGCTCCTCA) | 0.563
73 | CTCGGAGCTTGGGTTCTAACCTGTTGCCT (site CTCGGAACTAG) | 0.499
74 | CTCGGAGCTTGGGTTCTAACCTGTTGCCT (site CTCGGACCTAG) | 0.0847
75 | CTCGGAGCTTGGGTTCTAACCTGTTGCCT (site CTCGGAGCTAG) | 1.04
76 | CTCGGAGCTTGGGTTCTAACCTGTTGCCT (site CTCGGATCTAG) | 0.311
77 | CTCGGATCTTGGGTTCTAACCTGTTGCTT (site CTCGGATCTAA) | 1.38
78 | CTCGGATCTTGGGTTCTAACCTGTTGCTT (site CTCGGATCTCA) | 0.0569
79 | CTCGGATCTTGGGTTCTAACCTGTTGCTT (site CTCGGATCTGA) | 0.0569
80 | CTCGGATCTTGGGTTCTAACCTGTTGCTT (site CTCGGATCTTA) | 0.371
81 | CTCTAAACTTGGGTTCTAACCTGTTGCCG (site CTCATAACTCG) | 0.132
82 | CTCTAAACTTGGGTTCTAACCTGTTGCCG (site CTCTAAACTCG) | 0.311
83 | CTCTACCCTTGGGTTCTAACCTGTTGCGT (site CTCTAACCTAC) | 0.272
84 | CTCTACCCTTGGGTTCTAACCTGTTGCGT (site CTCTACCCTAC) | 0.589
85 | CTCTACCCTTGGGTTCTAACCTGTTGCGT (site CTCTAGCCTAC) | 0.0363
86 | CTCTACCCTTGGGTTCTAACCTGTTGCGT (site CTCTATCCTAC) | 0.0916
